15 molecules from ChEMBL document CHEMBL1201862, “PubChem BioAssay data set” (2004) can be followed below.

Active and inactive are the calls of the source.

A short description of test [1]: ADAM10 protease inhibitors, dose response, selectivity assay for ADAM17 exosite inhibitor project, biochemical, FRET peptide substrate, recombinant human ADAM10 (AID 743259).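 Further: ADAM10 enzyme cleaving a FRET peptide substrate.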
A further test has as its system Vero. The test can be described thus: cells. The test is classed as functional. The conditions noted are these: Chlorocebus sabaeus.
Another test concerns INS1. The test can be described thus: beta cell apoptosis inhibitors, cytokine rescue, dose response, luminescence, retest (AID 449756).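 Further: cell death triggered by IL-1 beta plus TNF-alpha plus IFN-gamma mixture; protective hits raise ATP signal compared with cytokine alone wells.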 The test is classed as functional, cell-based. The conditions noted are these: Rattus norvegicus.
Test [2] has as its system BJ. The test can be described thus: cytotoxicity toward BJ-TERT fibroblasts, dose response, cell-based, RAS-independent, luminescence (AID 1933). Particulars: Homo sapiens. The test is classed as functional.
For test [3], the target named is Nucleotide-binding oligomerization domain-containing protein 2 (Homo sapiens, UniProt Q9HC29). The test can be described thus: NOD2 signaling inhibitors, cell-based, luminescence, uHTS, HEK293 (AID 1566). The test is classed as functional.
Sequence of Nucleotide-binding oligomerization domain-containing protein 2 (Q9HC29 whole entry, the tested form may be a part): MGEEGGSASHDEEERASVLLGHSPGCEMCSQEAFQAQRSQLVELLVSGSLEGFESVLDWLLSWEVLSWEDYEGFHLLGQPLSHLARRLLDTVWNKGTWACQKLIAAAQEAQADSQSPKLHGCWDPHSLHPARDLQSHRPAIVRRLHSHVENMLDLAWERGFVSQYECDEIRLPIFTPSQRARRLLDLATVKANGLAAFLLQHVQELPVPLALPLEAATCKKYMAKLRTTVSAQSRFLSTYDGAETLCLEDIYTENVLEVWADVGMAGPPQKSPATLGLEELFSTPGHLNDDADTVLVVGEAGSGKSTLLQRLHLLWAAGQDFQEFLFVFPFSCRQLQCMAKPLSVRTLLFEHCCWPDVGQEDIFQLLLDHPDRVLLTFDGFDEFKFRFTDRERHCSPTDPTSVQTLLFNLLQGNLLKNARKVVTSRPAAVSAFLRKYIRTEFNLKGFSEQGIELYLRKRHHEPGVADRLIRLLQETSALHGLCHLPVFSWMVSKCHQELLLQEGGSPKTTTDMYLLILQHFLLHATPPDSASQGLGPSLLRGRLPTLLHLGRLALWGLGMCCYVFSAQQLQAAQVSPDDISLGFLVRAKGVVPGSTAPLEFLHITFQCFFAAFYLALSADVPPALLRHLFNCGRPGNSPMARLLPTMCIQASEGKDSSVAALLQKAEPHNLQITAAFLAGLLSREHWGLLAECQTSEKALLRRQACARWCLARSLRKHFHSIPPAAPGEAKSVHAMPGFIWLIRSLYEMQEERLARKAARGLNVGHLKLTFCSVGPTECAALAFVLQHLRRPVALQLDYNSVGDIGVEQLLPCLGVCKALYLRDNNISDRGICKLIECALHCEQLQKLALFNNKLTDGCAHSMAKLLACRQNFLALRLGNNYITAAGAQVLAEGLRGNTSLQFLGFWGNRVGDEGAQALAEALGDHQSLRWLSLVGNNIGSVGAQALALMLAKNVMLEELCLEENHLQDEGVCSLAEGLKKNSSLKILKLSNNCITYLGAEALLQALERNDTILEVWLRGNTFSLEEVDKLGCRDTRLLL
For test [4], the system named is HEK293. The test can be described thus: cells. The test is classed as functional, cell-based. The conditions noted are these: Homo sapiens.
The subject of test [5] is BJ. The test can be described thus: cytotoxicity toward BJ-TERT-LT-ST fibroblasts, dose response, cell-based, RAS-independent, luminescence (AID 1935).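 Further: BJ fibroblasts immortalized with TERT plus LT and ST oncogenes.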 The test is classed as functional. Particulars: Homo sapiens.
Test [6] concerns HEK293. The test can be described thus: NOD1 signaling inhibitors, primary screen, cell-based, luminescence, uHTS (AID 1578). The test is classed as functional. Particulars: Homo sapiens.
In test [7] the test system is HEK293. The test can be described thus: cells. The test is classed as functional, cell-based. Particulars: Homo sapiens. The source holds these as a separate data set.
In test [8] the test system is BJ. The test can be described thus: cells. The test is classed as functional, cell-based. Particulars: Homo sapiens.
The nature of test [9]: cytotoxicity toward DRD oncogenic fibroblasts, dose response, cell-based, non-viral oncogenic, luminescence (AID 1934). The test is classed as functional. Particulars: Homo sapiens.
The subject of test [10] is HEK293. The test can be described thus: NOD2 signaling inhibitors in MDP-stimulated cells, cell-based, uHTS, luminescence (AID 2001). The test is classed as functional. The conditions noted are these: Homo sapiens.
The subject of test [11] is HEK293. The test can be described thus: cells. The test is classed as functional, cell-based. The conditions noted are these: Homo sapiens. The source holds these as a separate data set.
Test [12] deals with Disintegrin and metalloproteinase domain-containing protein 17 (Homo sapiens, UniProt P78536). The test can be described thus: exosite inhibitors of ADAM17, dose response, biochemical (AID 743260).
Sequence of Disintegrin and metalloproteinase domain-containing protein 17 (P78536 whole entry, the tested form may be a part): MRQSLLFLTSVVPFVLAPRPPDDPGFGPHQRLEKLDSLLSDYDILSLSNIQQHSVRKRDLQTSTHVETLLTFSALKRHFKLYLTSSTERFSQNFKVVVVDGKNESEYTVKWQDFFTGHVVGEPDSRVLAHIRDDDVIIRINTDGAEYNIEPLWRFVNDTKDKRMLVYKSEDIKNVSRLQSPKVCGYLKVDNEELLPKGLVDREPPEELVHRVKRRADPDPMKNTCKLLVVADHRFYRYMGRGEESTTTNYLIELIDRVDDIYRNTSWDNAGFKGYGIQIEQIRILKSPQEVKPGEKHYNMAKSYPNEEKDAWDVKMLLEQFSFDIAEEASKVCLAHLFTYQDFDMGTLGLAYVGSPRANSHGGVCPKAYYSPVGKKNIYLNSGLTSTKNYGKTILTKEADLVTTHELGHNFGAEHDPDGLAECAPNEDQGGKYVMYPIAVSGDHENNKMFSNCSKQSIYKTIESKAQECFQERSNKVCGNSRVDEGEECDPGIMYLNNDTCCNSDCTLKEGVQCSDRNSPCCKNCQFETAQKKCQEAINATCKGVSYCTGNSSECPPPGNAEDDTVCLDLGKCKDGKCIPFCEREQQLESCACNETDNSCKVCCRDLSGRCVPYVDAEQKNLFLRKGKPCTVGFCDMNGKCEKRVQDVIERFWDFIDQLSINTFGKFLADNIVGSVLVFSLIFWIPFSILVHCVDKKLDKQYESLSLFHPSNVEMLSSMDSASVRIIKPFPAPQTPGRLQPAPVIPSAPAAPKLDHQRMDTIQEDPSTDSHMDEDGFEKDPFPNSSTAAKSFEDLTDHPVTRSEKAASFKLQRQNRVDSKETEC
The nature of test [13]: T. cruzi growth inhibition in host cells, dose response, cell-based, plate reader, dry powder, set 2 (AID 652275). The test is classed as functional.
The target in test [14] is T1, Fatty acid synthase (Homo sapiens, UniProt P49327). The test can be described thus: FAS thioesterase domain inhibitors, dose response, biochemical, endpoint fluorescence intensity, uHTS hits (AID 624327).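 Further: fluorescence from hydrolysis of an O-methyl fluorescein acyl ester substrate by the enzyme.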 The test is classed as functional.
T1 sequence (P49327 whole entry, the tested form may be a part): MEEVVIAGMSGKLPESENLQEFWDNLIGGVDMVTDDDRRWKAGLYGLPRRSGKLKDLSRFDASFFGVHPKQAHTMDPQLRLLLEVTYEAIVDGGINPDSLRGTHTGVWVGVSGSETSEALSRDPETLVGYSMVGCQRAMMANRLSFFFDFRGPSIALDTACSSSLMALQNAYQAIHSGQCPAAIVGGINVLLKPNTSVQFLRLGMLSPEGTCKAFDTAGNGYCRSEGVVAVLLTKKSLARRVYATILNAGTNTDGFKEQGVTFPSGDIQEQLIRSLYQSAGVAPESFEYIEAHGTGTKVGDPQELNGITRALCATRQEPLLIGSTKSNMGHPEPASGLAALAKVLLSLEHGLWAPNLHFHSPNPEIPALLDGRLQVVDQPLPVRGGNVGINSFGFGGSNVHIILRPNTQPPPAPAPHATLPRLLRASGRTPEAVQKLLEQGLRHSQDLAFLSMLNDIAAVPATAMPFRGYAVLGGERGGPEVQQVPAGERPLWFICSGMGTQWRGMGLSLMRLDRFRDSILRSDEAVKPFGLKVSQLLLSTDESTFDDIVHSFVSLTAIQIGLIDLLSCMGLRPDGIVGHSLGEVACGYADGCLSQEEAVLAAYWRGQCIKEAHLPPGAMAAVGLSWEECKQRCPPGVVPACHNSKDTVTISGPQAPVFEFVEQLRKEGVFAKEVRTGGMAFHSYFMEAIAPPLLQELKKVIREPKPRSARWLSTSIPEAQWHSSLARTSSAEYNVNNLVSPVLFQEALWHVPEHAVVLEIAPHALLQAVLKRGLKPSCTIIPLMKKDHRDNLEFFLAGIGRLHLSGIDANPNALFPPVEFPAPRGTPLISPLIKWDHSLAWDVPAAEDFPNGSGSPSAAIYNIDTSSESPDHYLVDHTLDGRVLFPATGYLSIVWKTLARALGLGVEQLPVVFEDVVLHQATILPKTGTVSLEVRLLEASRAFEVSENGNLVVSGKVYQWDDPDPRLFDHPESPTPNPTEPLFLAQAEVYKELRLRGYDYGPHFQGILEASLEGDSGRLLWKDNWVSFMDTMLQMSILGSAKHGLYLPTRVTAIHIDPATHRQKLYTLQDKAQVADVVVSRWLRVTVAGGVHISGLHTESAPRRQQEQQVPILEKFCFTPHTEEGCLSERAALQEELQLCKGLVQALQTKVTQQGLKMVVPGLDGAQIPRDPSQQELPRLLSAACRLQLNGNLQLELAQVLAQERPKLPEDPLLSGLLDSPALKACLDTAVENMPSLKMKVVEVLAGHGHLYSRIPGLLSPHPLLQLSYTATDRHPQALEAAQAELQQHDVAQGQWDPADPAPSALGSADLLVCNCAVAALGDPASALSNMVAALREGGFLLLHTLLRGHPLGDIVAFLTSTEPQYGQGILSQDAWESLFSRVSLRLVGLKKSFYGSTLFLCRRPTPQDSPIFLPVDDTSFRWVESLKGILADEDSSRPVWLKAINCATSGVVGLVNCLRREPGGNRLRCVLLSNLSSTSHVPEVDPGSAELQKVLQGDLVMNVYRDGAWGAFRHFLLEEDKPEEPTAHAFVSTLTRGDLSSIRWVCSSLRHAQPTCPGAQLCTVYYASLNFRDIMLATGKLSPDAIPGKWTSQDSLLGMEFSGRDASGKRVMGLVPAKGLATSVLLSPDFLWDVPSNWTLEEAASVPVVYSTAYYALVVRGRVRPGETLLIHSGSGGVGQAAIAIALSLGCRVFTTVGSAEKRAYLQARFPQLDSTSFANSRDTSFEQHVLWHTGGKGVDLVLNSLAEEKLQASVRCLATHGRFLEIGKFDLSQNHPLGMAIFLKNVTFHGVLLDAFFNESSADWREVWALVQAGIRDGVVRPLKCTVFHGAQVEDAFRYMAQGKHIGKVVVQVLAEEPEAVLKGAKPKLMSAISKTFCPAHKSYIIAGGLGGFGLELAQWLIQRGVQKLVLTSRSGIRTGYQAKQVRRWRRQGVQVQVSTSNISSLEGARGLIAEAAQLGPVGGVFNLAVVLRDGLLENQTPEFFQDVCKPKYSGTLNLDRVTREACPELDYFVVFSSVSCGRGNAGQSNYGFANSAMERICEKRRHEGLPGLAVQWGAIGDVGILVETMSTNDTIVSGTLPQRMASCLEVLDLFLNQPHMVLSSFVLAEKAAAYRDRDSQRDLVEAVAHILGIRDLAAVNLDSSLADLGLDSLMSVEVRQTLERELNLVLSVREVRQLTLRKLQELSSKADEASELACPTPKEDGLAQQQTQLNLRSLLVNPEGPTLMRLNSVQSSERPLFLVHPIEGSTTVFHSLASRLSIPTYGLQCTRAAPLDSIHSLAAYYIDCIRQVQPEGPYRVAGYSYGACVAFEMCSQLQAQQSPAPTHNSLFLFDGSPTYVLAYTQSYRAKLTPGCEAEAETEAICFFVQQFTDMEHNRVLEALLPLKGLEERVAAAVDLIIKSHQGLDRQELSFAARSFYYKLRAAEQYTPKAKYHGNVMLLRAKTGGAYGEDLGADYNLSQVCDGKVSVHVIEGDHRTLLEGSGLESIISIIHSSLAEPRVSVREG
Test [15] has as its target T1, Fatty acid synthase. The test can be described thus: FAS thioesterase domain inhibitors, dose response, biochemical, kinetic fluorescence intensity (AID 624326).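 Further: rate of fluorescence rise from hydrolysis of a fluorogenic O-methyl fluorescein ester substrate.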 The test is classed as functional.
A short description of test [16]: human group III sPLA2 inhibitors, dose response, biochemical, QFRET, IC50 (AID 743457).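 Further: green fluorescence rise as the enzyme cleaves BODIPY PC-A2 in liposomes; potency for inhibition of the enzyme.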
The nature of test [17]: inhibitors of SNCA 5'UTR-driven reporter translation, confirmation, H4 neuroglioma cells, luminescence (AID 1988). The test is classed as functional, cell-based.
The nature of test [18]: Luminescence Cell-Based Dose Response HTS to Identify Inhibitors of 5'UTR Stem-Loop Driven Prion Protein mRNA Translation in H4 Neuroglioblastoma Cells. [Related pubchem assays: 1827 (Project Summary), 1813 (Primary HTS)]. The test is classed as functional.
Test [19] has as its system BJ. The test can be described thus: cytotoxicity toward Ras-transformed BJeLR fibroblasts, dose response, cell-based, alamar blue fluorescence, cherrypicked samples (AID 2631).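 Further: confirmatory dose-response assay in RAS-dependent BJ fibroblasts engineered with TERT, LT and ST, with cytotoxicity read by fluorescence.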 The test is classed as functional. The conditions noted are these: Homo sapiens. (Resazurin is reduced to fluorescent resorufin, in cell work by metabolically active cells.)
The nature of test [20]: inhibitors of firefly luciferase expression or activity, dose response, H4 neuroglioma cells, luminescence (AID 1990). The test is classed as functional, cell-based.
The test system of test [21] is Streptococcus sp. 'group A'. The test can be described thus: growth inhibition of control SK(-) GAS strain, dose response, counter-screen for streptokinase expression inhibitor project, luminescence, kanamycin, BacTiterGlo, confirmation (AID 1900). The test is classed as functional, organism-based. For orientation: Counterscreens check selectivity or assay interference.

For the next test, the system named is Streptococcus. The test can be described thus: Group A Streptococcus viability loss, dose response, counter-screen for streptokinase expression inhibitor project, luminescence, BacTiterGlo (AID 1915).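 Further: potency for reduction of bacterial viability or growth.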 The test is classed as functional, organism-based.
Test [22] is described as follows: A2780 ovarian cancer cell cytotoxicity, dose response, cytotoxicity control, plate reader, dry powder samples (AID 743046). The test is classed as functional, cell-based.
A further test concerns the target Paired box protein Pax-8 (Homo sapiens, UniProt Q06710). The test can be described thus: inhibitors of PAX8-driven TPO luciferase reporter, dose response, RMG-I cells, cherry-pick (AID 687027).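 Further: luciferase reporter driven by Pax8 target thyroperoxidase promoter measured by SteadyGlo luminescence.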 The test is classed as functional, cell-based. In general terms: In a reporter assay the amount or activity of a reporter protein is the signal.
Test [23] in a line: NIH:OVCAR-3 ovarian cancer cell cytotoxicity, dose response, PAX8 inhibitor project, plate reader, dry powder samples (AID 743044). The test is classed as functional, cell-based.
Test [24] in a line: cytotoxicity in OVCAR8 ovarian cancer cells, dose response, PAX8 project, cell-based, plate reader, dry powder samples (AID 743197). The test is classed as functional. Particulars: OVCAR-8.
Test [25] addresses T2, Endoribonuclease toxin MazF (Escherichia coli K-12, UniProt P0AE70).
T2 sequence (P0AE70 whole entry): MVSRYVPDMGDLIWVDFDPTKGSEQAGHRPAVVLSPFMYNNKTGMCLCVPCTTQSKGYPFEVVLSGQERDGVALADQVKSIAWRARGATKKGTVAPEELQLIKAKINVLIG
The test can be described thus: fluorescent RNA oligo signal without MazF, dose response, counter-screen for MazEF activator project, biochemical, fluorescence, single-stranded RNase substrate (AID 588502). The test is classed as functional.

Test [26] deals with T2, Endoribonuclease toxin MazF. The test can be described thus: MazF toxin RNase activators, dose response, biochemical, fluorescence, single-stranded RNA substrate, uHTS hits (AID 588481). The test is classed as functional.

Sequence of Paired box protein Pax-8 (Q06710 whole entry): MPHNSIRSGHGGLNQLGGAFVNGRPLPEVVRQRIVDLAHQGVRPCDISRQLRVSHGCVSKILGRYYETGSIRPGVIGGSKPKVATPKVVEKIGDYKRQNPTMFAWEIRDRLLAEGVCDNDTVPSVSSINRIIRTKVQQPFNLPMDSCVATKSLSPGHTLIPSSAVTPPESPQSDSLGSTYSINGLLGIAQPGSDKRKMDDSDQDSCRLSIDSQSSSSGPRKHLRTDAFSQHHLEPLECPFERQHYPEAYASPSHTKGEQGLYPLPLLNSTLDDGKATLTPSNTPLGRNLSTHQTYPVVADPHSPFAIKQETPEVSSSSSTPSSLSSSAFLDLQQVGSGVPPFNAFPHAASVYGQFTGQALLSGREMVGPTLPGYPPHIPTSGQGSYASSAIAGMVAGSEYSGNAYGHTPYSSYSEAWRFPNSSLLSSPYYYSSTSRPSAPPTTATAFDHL

One may read the IC50 as the concentration that gives 50% inhibition. For the molecule `Cc1cccc(NS(=O)(=O)c2ccc3nc(O)cc(C(=O)OC(C)C(=O)Nc4ccc([N+](=O)[O-])cc4)c3c2)c1` (stereo not drawn), the IC50 in [1] was > 69.5 µM (inactive).
The term CC50 denotes the concentration at which the toxic effect on the cells reaches its halfway point. As usually defined, the AC50 is the concentration giving half of the maximal activity seen. Turning to `COc1ccc(C2=Nn3c(nnc3-c3ccccc3Cl)SC2)cc1OC1CCCC1`, the CC50 in the test on Vero was 10.7 µM (active). The AC50 with INS1 is 42.7 µM (active).
By EC50 is commonly meant the concentration needed to bring the measured effect to its halfway point. Turning to `COc1cc(/C=C/c2ccc3cccc(O)c3n2)cc(Cl)c1OC`, the half-maximal effective concentration (EC50) was 23.4 µM (active) with BJ [2]; > 20 µM (inactive) in test [3]; > 150 µM (not active) in the test with BJ [5]; 3.66 µM (active) with HEK293 [6]; 44.9 µM (active) in the test with BJ [8]; 19.1 µM (active) in test [9]. Moreover, the IC50 is > 20 µM (inactive) in the test on HEK293 [4], 9.42 µM (active) in the test with HEK293 [7], 4.22 µM (inactive) in the test with HEK293 [10] and > 20 µM (inactive) with HEK293 [11]. In the test on Vero, the half-maximal cytotoxic concentration (CC50) was 11.6 µM (active).
`Cc1cc(C)cc(-n2c(SC(C)C(=O)NCc3ccc4c(c3)OCO4)nc3ccccc3c2=O)c1` (stereo not drawn): the results for the IC50 in test [1] and in [12] were 18.3 µM (inactive) and > 69.5 µM (inactive), respectively.
With `CC(C)N1C[C@@H](CN(C)Cc2ccc(Cl)c(Cl)c2)Oc2c(NC(=O)c3ccncc3)cccc2C1=O`, in [13], the AC50 is 0.000485 µM (active).
As to `Cc1cccc(NS(=O)(=O)c2ccc3[nH]c(=O)cc(C(=O)OC(C)C(=O)Nc4ccc([N+](=O)[O-])cc4)c3c2)c1` (stereo not drawn), the concentration for half-maximal inhibition (IC50) is 1.51 µM (active) at Fatty acid synthase [14], 3.66 µM (active) on Fatty acid synthase [15] and > 69.5 µM (inactive) in test [12].
Consider `Cc1cccc(NC(S)=NNC(=O)c2csc(C)c2)c1`, for which the IC50 in test [16] is > 122 µM (inactive).
For the molecule `CC(C)[C@]12O[C@H]1[C@@H]1O[C@]13[C@]1(O[C@H]1C[C@H]1C4=C(CC[C@@]13C)C(=O)OC4)[C@@H]2O` [TRIPTOLIDE], the concentration giving a half-maximal response (EC50) is < 0.1 µM (active) in test [17], < 0.1 µM (active) in test [18], < 0.104 µM (active) with BJ [19] and < 0.1 µM (active) in test [20].
In the case of `CC(C)N1C[C@H](C)[C@@H](CN(C)Cc2ccc(Cl)c(Cl)c2)Oc2c(cccc2-c2nnc(-c3ccncc3)o2)C1=O`, the AC50 in [13] was 0.0624 µM (active).
Turning to `Cc1cccc(NC2=NC(N)=NC(C)(C)N2)c1`, the EC50 in the test with BJ [2] was > 150 µM (not active); with BJ [5], > 150 µM (not active); in test [21] it was < 0.06 µM (active); in the test with Streptococcus it was 0.478 µM (active); in the test with BJ [19], > 133 µM (inactive); with BJ [8] it was 1.26 µM (inconclusive). In addition, the EC50 in [9] is 1.48 µM (active).
As to `C[C@@H]1CN([C@H](C)CO)C(=O)c2cc(NC(=O)Nc3ccc(C(F)(F)F)cc3)ccc2O[C@@H](C)CCCCO[C@@H]1CN(C)Cc1ccc(Cl)c(Cl)c1`, the half-maximal activity concentration (AC50) in test [22] is 39.1 µM (active); at Paired box protein Pax-8, 5 µM (active); in test [23], 20.7 µM (active); in [24], 29.1 µM (active).
As for `CN(C)Cc1c(C(=O)N/N=C/c2cccc(OCc3ccc(F)cc3)c2)nnn1-c1nonc1N`, the EC50 in test [25] was > 99 µM (inactive); in [26] it was 45.2 µM (inactive).
Take `COC[C@H](C)N1C[C@H](C)[C@@H](CN(C)Cc2ccc(Oc3ccccc3)cc2)Oc2c(NC(=O)c3ccncc3)cccc2C1=O`: the half-maximal activity concentration (AC50) in test [13] was 0.00119 µM (active).
On to `O=C(Nc1cccc2ccccc12)N1CC=C(c2ccccc2)CC1`, for which the values for the EC50 in test [25] and in test [26] were > 99 µM (inactive) and 53.7 µM (inactive), respectively.
Take `O=C(O)c1nn(CCOc2c(Cl)cccc2Cl)c(=O)c2ccccc12`: the CC50 in the test on Vero was > 25 µM (active).
